Patent publication EP2924040A1, “2-Amino-1-(o-tolyl)pyrrolo[3,2-b]quinoxaline-3-carboxamide derivates” (Universität Zürich, priority 2014, dated 2015)

Tests used:
EphA3 = target: T1, EphA3 (Homo sapiens, UniProt P29320); assay: Surface Plasmon Resonance (SPR) determination of binding and unbinding kinetics; settings: immobilized EphA3, 25 °C
T1 sequence (P29320 21-983): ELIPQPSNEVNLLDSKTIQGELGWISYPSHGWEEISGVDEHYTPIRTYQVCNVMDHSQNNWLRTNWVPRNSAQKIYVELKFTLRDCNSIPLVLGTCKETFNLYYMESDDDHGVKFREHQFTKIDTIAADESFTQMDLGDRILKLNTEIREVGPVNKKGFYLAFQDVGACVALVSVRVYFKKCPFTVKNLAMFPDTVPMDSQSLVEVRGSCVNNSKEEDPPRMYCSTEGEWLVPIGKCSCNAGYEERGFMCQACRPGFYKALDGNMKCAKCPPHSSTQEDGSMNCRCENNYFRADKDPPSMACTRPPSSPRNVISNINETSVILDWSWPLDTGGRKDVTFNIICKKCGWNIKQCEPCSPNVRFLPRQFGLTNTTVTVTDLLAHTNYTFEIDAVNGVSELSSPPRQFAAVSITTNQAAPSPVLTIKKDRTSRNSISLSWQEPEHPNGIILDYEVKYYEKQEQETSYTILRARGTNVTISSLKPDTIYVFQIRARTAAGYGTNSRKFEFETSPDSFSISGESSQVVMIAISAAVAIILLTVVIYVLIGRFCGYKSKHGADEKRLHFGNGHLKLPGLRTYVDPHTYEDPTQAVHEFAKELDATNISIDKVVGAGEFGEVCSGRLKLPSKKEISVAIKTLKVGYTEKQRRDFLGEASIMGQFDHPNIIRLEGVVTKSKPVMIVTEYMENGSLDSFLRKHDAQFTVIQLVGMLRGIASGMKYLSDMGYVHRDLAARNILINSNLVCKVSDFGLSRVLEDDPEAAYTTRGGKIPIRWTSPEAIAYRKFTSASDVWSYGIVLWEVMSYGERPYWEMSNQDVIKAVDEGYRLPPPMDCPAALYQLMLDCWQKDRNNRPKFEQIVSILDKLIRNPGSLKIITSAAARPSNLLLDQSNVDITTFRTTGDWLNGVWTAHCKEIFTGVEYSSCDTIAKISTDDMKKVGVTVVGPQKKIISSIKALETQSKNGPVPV
Protocol: The affinity of compound 2 towards EphA3 was determined using Surface Plasmon Resonance measurements on a ProteOn XPR36 (Bio-Rad Laboratories, AG). EphA3 was immobilized on a GLH chip (Bio-Rad Laboratories AG) by standard amine coupling procedures achieving a RU of 4000-6000 and equilibrated with steriled-filtered buffer (10mM HEPES, 150mM NaCl, 3mM EDTA, 0.005% Tween 20 pH 8.0) with a flow rate of 60µL/min. Association of compound 2 was performed at 25 °C using serial dilutions of the inhibitors in duplicates for 400s, whereas dissociation of the inhibitors from the chip was monitored for 36,000 seconds. Data were normalized using interspot referencing and subtraction of a separate analyte channel run with buffer and BSA. All sensograms were fitted using a 1:1 Langmuir model provided by the ProteOn Manager Software (Bio-Rad Laboratories AG), and the association (kon) and dissociation ([…]) rate constants were used to determine the equilibrium dissociation constants (KD).

EphB4 = target: T2, EphB4 (Homo sapiens, UniProt P54760); assay: Cellular phosphorylation assay (EphB4 autophosphorylation, sandwich ELISA); assay type: cell-based; parameters: stably transfected to overexpress full-length human EphB4; host or cells: mouse embryonic fibroblast cells; settings: mouse embryonic fibroblast cells overexpressing full-length human EphB4; 90 min at 37 °C; stimulated with murine ephrinB2-Fc
T2 sequence (P54760 16-987): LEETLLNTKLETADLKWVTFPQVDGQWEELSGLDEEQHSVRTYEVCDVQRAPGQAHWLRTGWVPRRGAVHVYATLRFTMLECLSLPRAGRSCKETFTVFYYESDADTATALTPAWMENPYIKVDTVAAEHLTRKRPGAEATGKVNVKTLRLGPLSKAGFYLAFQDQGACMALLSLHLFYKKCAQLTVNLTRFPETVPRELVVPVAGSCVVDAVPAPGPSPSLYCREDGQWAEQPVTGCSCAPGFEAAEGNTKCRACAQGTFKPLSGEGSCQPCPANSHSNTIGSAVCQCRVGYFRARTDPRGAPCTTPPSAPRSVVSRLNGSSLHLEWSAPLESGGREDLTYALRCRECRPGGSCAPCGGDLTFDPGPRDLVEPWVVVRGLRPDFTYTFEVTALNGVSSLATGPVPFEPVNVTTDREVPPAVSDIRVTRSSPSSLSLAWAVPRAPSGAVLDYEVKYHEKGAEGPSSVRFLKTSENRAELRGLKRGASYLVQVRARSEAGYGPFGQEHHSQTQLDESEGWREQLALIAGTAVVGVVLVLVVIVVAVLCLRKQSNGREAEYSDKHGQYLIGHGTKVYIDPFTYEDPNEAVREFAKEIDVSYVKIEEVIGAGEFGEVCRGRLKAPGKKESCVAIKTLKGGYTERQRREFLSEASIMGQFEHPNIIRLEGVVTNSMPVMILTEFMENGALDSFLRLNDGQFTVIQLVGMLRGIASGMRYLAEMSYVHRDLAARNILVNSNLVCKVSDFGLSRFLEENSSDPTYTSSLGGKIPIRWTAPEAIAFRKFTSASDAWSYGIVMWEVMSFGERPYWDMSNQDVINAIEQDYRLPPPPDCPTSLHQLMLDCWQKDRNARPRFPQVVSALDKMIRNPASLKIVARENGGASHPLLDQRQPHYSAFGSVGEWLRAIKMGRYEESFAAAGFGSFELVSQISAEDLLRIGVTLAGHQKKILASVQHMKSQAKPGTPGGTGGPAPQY
Protocol: Mouse embryonic fibroblast cells, stably transfected to overexpress full-length human EphB4, were plated at 4×10^4 cells/well in DMEM supplemented with 10% FCS in 48-well culture dishes. Medium was replaced by DMEM without FCS before test compounds prediluted in 100% DMSO were added (final DMSO concentration of 1 %). […] Quantification of EphB4 phosphorylation was assessed in a 96-well plate via sandwich ELISA using a myc capture antibody and an antiphosphotyrosine detection antibody.

In the case of `Cc1ccc(O)cc1-n1c(N)c(C(N)=O)c2nc3ccccc3nc21` [Compound 2, 2-Amino-1-(5-hydroxy-2-methylphenyl)-1H-pyrrolo[2,3-b]quinoxaline-3-carboxamide], the Kd (EphA3; 1:1 Langmuir model, read-out: dissociation constant (KD)) is reported as 6 nM, the residence time (EphA3; reciprocal value of koff, read-out: τoff (residence time) (converted)) is reported as 11 min and the IC50 (EphB4) is reported as less than 6 nM.
